Experiments:
ZR-75-1 Tam2 [1] = assay: drug sensitivity score (DSS) (DSS (dimensionless)); higher = more sensitive; extreme values may be limits of the assay; details: 4-OH-tamoxifen in medium 1 µM; 72 h
In short: (§1)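 Breast cancer cell lines and their resistant derivatives were seeded into 384-well plates containing library drugs at five concentrations across a 10 000-fold range, with resistant lines kept in medium with 1 μM of the selecting drug. After 72 h at 37 °C, CellTiter-Glo viability was read on a PHERAstar and normalised to vehicle-only and positive controls. Logistic dose–response fits in the Breeze pipeline gave drug sensitivity score, relative IC50 (curve midpoint) and top-dose inhibition.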

BT-474 Tam2 [2] = assay: as above; details: 4-OH-tamoxifen in medium 1 µM; 72 h
In short: as §1

BT-474 [3] = assay: as above; details: 72 h
In short: as §1

BT-474 Tam1 [4] = assay: as above; details: 4-OH-tamoxifen in medium 1 µM; 72 h
In short: as §1

T-47D [5] = assay: as above; details: 72 h
In short: as §1

MCF-7 [6] = assay: as above; details: 72 h
In short: as §1

T-47D Tam1 [7] = assay: as above; details: 4-OH-tamoxifen in medium 1 µM; 72 h
In short: as §1

MCF-7 Tam1 = assay: as above; details: 4-OH-tamoxifen in medium 1 µM; 72 h
In short: as §1

ZR-75-1 Tam1 [8] = assay: as above; details: 4-OH-tamoxifen in medium 1 µM; 72 h
In short: as §1

T-47D Tam2 [9] = assay: as above; details: 4-OH-tamoxifen in medium 1 µM; 72 h
In short: as §1

ZR-75-1 [10] = assay: as above; details: 72 h
In short: as §1

ZR-75-1 Tam2 [11] = assay: relative IC50 (midpoint of fitted logistic curve, plateau may be below 50% inhibition; CellTiter-Glo viability); higher = less potent; details: 4-OH-tamoxifen in medium 1 µM; 72 h
In short: as §1

BT-474 Tam2 [12] = assay: as above; details: 4-OH-tamoxifen in medium 1 µM; 72 h
In short: as §1

BT-474 [13] = assay: as above; details: 72 h
In short: as §1

BT-474 Tam1 [14] = assay: as above; details: 4-OH-tamoxifen in medium 1 µM; 72 h
In short: as §1

T-47D [15] = assay: as above; details: 72 h
In short: as §1

MCF-7 [16] = assay: as above; details: 72 h
In short: as §1

T-47D Tam1 [17] = assay: as above; details: 4-OH-tamoxifen in medium 1 µM; 72 h
In short: as §1

ZR-75-1 Tam1 [18] = assay: as above; details: 4-OH-tamoxifen in medium 1 µM; 72 h
In short: as §1

T-47D Tam2 [19] = assay: as above; details: 4-OH-tamoxifen in medium 1 µM; 72 h
In short: as §1

ZR-75-1 [20] = assay: as above; details: 72 h
In short: as §1

Row | relative IC50 (BT-474 Tam2 [12]) [nM] | relative IC50 (BT-474 [13]; 4-OH-tamoxifen in medium 0 µM) [nM] | relative IC50 (BT-474 [13]; 4-OH-tamoxifen in medium 1 µM) [nM] | relative IC50 (BT-474 Tam1 [14]) [nM] | relative IC50 (T-47D [15]; 4-OH-tamoxifen in medium 0 µM) [nM] | relative IC50 (T-47D [15]; 4-OH-tamoxifen in medium 1 µM) [nM] | relative IC50 (MCF-7 [16]; 4-OH-tamoxifen in medium 0 µM) [nM] | relative IC50 (MCF-7 [16]; 4-OH-tamoxifen in medium 1 µM) [nM] | relative IC50 (T-47D Tam1 [17]) [nM] | relative IC50 (T-47D Tam2 [19]) [nM] | Compound | drug sensitivity score (ZR-75-1 Tam2 [1]) | drug sensitivity score (BT-474 Tam2 [2]) | drug sensitivity score (BT-474 [3]; 4-OH-tamoxifen in medium 0 µM) | drug sensitivity score (BT-474 [3]; 4-OH-tamoxifen in medium 1 µM) | drug sensitivity score (BT-474 Tam1 [4]) | drug sensitivity score (T-47D [5]; 4-OH-tamoxifen in medium 0 µM) | drug sensitivity score (T-47D [5]; 4-OH-tamoxifen in medium 1 µM) | drug sensitivity score (MCF-7 [6]; 4-OH-tamoxifen in medium 0 µM) | drug sensitivity score (MCF-7 [6]; 4-OH-tamoxifen in medium 1 µM) | drug sensitivity score (T-47D Tam1 [7]) | drug sensitivity score (MCF-7 Tam1) | drug sensitivity score (ZR-75-1 Tam1 [8]) | drug sensitivity score (T-47D Tam2 [9]) | drug sensitivity score (ZR-75-1 [10]; 4-OH-tamoxifen in medium 0 µM) | drug sensitivity score (ZR-75-1 [10]; 4-OH-tamoxifen in medium 1 µM) | relative IC50 (ZR-75-1 Tam2 [11]) [nM] | relative IC50 (ZR-75-1 Tam1 [18]) [nM] | relative IC50 (ZR-75-1 [20]; 4-OH-tamoxifen in medium 0 µM) [nM] | relative IC50 (ZR-75-1 [20]; 4-OH-tamoxifen in medium 1 µM) [nM]
1 | 3390 | 3770 | 4050 | 4130 | 4090 | 3840 | 2890 | 3910 | 3780 | 3860 | CCCCCCCCc1ccc(CCC(N)(CO)CO)cc1 [Fingolimod] | 2.69 | 4.99 | 4.44 | 4.21 | 4.13 | 2.91 | 4.24 | 5.74 | 3.17 | 2.83 | 0.0112 | 2.18 | 2.59 | 1.58 | 2.36 | 3490 | 3370 | 3930 | 3710
2 | 155 | 53.6 | 78 | 80.2 | 1600 |  | 86.8 | 189 | 498 | 91.9 | O=C(Cc1ccc(-c2ccc(OCCN3CCOCC3)cc2)cn1)NCc1ccccc1 [KX2-391] | 4.76 | 19.7 | 12.3 | 21.8 | 22 | 2.76 | 4.36 | 11.2 | 10.5 | 10.6 | 0 | 3.06 | 11.3 | 11.5 | 4.21 | 1110 | 2190 | 53.1 | 779
3 |  |  | 335 | 170 | 114 | 177 | 315 | 119 | 101 | 111 | NC1(c2ccc(-c3nc4ccn5c(=O)[nH]nc5c4cc3-c3ccccc3)cc2)CCC1 [MK-2206] | 7.96 | 0.553 | 1.68 | 2.54 | 4.04 | 5.76 | 2.9 | 1.67 | 4.73 | 5.11 | 2.56 | 7.57 | 5.54 | 6.86 | 7.22 | 78.2 | 68.5 | 73.6 | 54.6
4 | 10.2 | 4.12 | 2.25 | 3.5 | 19.9 | 8.93 | 6.59 | 41.2 | 37.2 | 10.4 | CCNC(=O)c1noc(-c2cc(C(C)C)c(O)cc2O)c1-c1ccc(CN2CCOCC2)cc1 [NVP-AUY922] | 9.04 | 16.8 | 14.7 | 26.5 | 22.9 | 14.3 | 14.1 | 16.7 | 7.64 | 8.46 | 3.94 | 6.14 | 13.5 | 6.75 | 7.06 | 21.1 | 22.5 | 18.6 | 40.4
5 | 22 | 19.7 | 10.6 | 17.1 | 44.7 | 40.8 | 28.7 | 35.2 | 47.5 | 87.6 | Cc1[nH]c2ccccc2c1CCNCc1ccc(/C=C/C(=O)NO)cc1 [Panobinostat] | 7.47 | 17.2 | 17.8 | 23.3 | 19.8 | 15.5 | 15.9 | 16.3 | 15.2 | 12.7 | 1.73 | 5.02 | 8.64 | 8.15 | 4.19 | 49.6 | 64.7 | 32.7 | 81.7
6 |  |  |  | 2110 | 1900 |  | 1540 | 1320 | 1320 | 1450 | OC[C@H]1O[C@@H](n2cnc3c2N=CNC[C@H]3O)C[C@@H]1O [Pentostatin] | 3.72 | 0.106 | 0.324 | 0.0318 | 1.97 | 3.58 | 2.45 | 4.26 | 2.79 | 4.83 | 0.721 | 2.62 | 3.19 | 4.39 | 3.83 | 1310 | 2930 | 1580 | 1140
7 |  | 2130 | 2230 | 3450 | 306 | 697 | 2130 |  | 995 | 1110 | COc1cc([C@@H]2c3cc4c(cc3[C@@H](O[C@@H]3O[C@@H]5CO[C@@H](c6cccs6)O[C@H]5[C@H](O)[C@H]3O)[C@H]3COC(=O)[C@H]23)OCO4)cc(OC)c1O [Teniposide] | 5.1 | 0.0097 | 4.07 | 6.48 | 3.14 | 9.21 | 4.79 | 4.14 | 2.91 | 8.66 | 0.273 | 3.15 | 4.73 | 4.91 | 3.3 | 737 | 1600 | 703 | 1070
8 |  |  | 1250 | 1190 | 3240 |  | 939 | 1350 | 768 | 850 | CC(C)C[C@@H](C(=O)N[C@H](C(=O)OC1CCCC1)c1ccccc1)[C@H](O)C(=O)NO [Tosedostat (CHR 2797)] | 5.85 | 1.07 | 4 | 5.75 | 3.46 | 1.5 | 0.354 | 3.93 | 3.62 | 5.48 | 0 | 2.61 | 5.12 | 4.86 | 3.37 | 242 | 829 |  | 

— the supplement of paper PMC4932681
